# Experimental data reported in US12396996B2, “Compounds, pharmaceutical compositions, and methods of their use in reversing cancer chemoresistance” (priority 2019, dated 2025).
# Columns and labels:
# [1] = test system: TICs (cancer stem/progenitor cells); test: Tumorsphere assay; assay type: cell-based; settings: 0, 30, 80 nM; 14 days of culture
# Source text: (§1) FIGS. 1F-1I show the results of a 3-D tumor spheroid assay formed by the chemotherapy-resistant breast cancer cell line, HMLE-SNAIL. […] Tumor spheroids are a model of real in vivo tumors, as they form a 3-D cell mass in which the hypoxic and often nutrient depleted microenvironment at the center of the tumor is enriched with mesenchymal, chemotherapy-resistant TIC cells. […] By staining spheroids with Sytox, which stains dead cells green, and DAPI, which stains the nuclei of all cells (living or dead), total fraction of dead cells is calculated. Also, the location of dead cells within the sphere is visualized with Sytox (green) staining. The results of FIGS. 1F-1I indicate that chaetocin a selective and potent killer of inner cells of the spheroids, enriched with mesenchymal, chemotherapy-resistant TIC cells, compared to other compounds tested. FIGS. 1J-1K show the results of a tumorsphere assay performed with TICs grown on serum-free, non-adherent culture conditions. […] The results of FIGS. 1J-1K indicate that chaetocin is effective in eliminating TICs in a dose dependent-manner.
# To further determine the effect of chaetocin on eliminating TICs, a tumorsphere assay was performed on cancer cells under increasing concentrations of chaetocin. A tumorsphere is a solid spherical formation developed from the proliferation of one cancer stem/progenitor cell. […]
# [2] = test system: H3K9me3 in HMLE-TWIST cells; test: H3K9me3 chromatin immunoprecipitation and deep sequencing; assay type: cell-based, human
# Description: FIG. 11 is a meta-plot depicting the H3K9me3 peaks in HMLE-TWIST cells treated (right graph) with 0.3 μM of chaetocin for 15 hours versus untreated cells (left graph). […] The decrease in red and yellow color and an increase in blue color is consistent with chaetocin-induced inhibition of Suv39H1 and Suv39H2 activities resulting in a decrease in H3K9me3 throughout the chaetocin-treated HMLE-TWIST cells.
# Chaetocin is an inhibitor of Suv39H1 and Suv39H2 enzymes, whose catalytic activities trimethylates lysine 9 of histone H3. […] Consistent with our model, we find that genes involved in cell-cell adhesion (a strong marker for epithelial cells) display a specific loss of H3K9me3 in response to chaetocin treatment (Table 6). We also find that genes involved in neural differentiation also lose H3K9me3. […] Moreover, 60 genes display a simultaneous loss of H3K9me3 and an increase in their expression in chaetocin-treated cells (Table 7).
# [3] = test system: 800 cancer cell lines; test: Cell viability screen with GSEA of mesenchymal gene signature; assay type: cell-based; settings: 0.005-1.28 μM, viability several days after treatment
# Description: FIGS. 1D-1E are a series of scatter plots showing the results of a Gene Set Enrichment Analysis (GSEA) screen of 800 cancer cell lines for sensitivity to chaetocin applied at 9 different concentrations (0.005 μM, 0.01 μM, 0.02 μM, 0.04 μM, 0.08 μM, 0.16 μM, 0.32 μM, 0.64 μM, and 1.28 μM) in culture. Cell viability was measured several days after chaetocin treatment. FIG. 1D is a scatter plot showing the chaetocin sensitivity of all tested cells lines: mesenchymal gene expression signature (SNAIL-induced early-repressed gene set) (Y-axis) is plotted against area under the curve (AUC) calculated by measuring percent cell death caused by increasing doses of chaetocin (X-axis). Mesenchymal gene expression signature (SNAIL-induced early-repressed gene set) used in the Y-axis was based on the Javaid et al 2013 paper.
# To determine whether sensitivity of cancer cells to chaetocin correlates with mesenchymal cell phenotype, the sensitivity or resistance of 800 cancer cell lines to chaetocin was assayed by the group of Cyril Benes treating each cell line with chaetocin at concentrations of 0.005 μM, 0.01 μM, 0.02 μM, 0.04 μM, 0.08 μM, 0.16 μM, 0.32 μM, 0.64 μM, and 1.28 μM. Cell viability was measured several days following treatment. […]
# [4] = test system: HMLE-SNAIL spheroids; test: 3-D tumor spheroid assay (Sytox/DAPI staining); assay type: cell-based, human; settings: Sytox staining
# Source text: as §1
# To determine whether chaetocin affects TIC death in a tumor-like environment, 3-D tumor spheroid assays were performed in the presence or absence of chaetocin. Tumor spheroids are a model of a real tumor, as they form a 3-D cell mass similar to tumors in vivo. The local microenvironment of a spheroid recapitulates many of the in vivo properties of tumor. Importantly, the hypoxic and often nutrient depleted microenvironment at the center of the tumor is favorable for converting epithelial, non-TIC, chemotherapy-sensitive cancer cells into mesenchymal, TIC-rich, chemotherapy-resistant cells. […] Pharmacological agents were added and cell viability was calculated by staining cells with Sytox, which stains dead cells green, and DAPI, which stains the nuclei of all cells (living or dead). to provide the total cell number. Using this method, the total fraction of dead cells was calculated and compared between different drug conditions. More importantly, the location of dead cells within the sphere is visualized with Sytox (green) staining. FIGS. 1G-1I show fluorescence images of tumor spheroids under control conditions (no treatment; FIG. 1G), under treatment with various experimental chemotherapeutic agents (Y-27632, LY-450139, and IWP-L6 (Wnt); FIG. 1H), and with chaetocin treatment (FIG. 1I). […] This family of kinases are thought to be important for survival of TIC cells. IWP-L6 is an inhibitor of Wnt pathway—a pathway important for TIC cell survival and formation. LY-450139 is a NOTCH pathway inhibitor. NOTCH is also important for TIC cell viability and survival. […]
# [5] = test system: HMLE-TWIST cells; test: E-cadherin (E-cad) level after chaetocin pulse; assay type: cell-based, human; settings: 80 nM or 200 nM for 15 hours, then 1, 2, 4 days chaetocin-free
# Description: Levels of an epithelial marker, E-cadherin (E-cad) were assayed at 15H, 1 D, 2D, and 4D after chaetocin treatment and the fraction of E-cad positive cells was quantified.
# To molecularly test whether chaetocin treatment converts mesenchymal cells into epithelial cells, HMLE-TWIST cells were treated with a pulse of chaetocin for 15 hours (15H), washed and then incubated in chaetocin-free media for 1 day (1D), 2 days (2D), and 4 days (4D). Levels of the ubiquitous epithelial marker E-cadherin (E-cad) was assayed using Western blots throughout the experiment.
# [6] = 0.3 uM for 15 hours, Gene Ontology Biological Process
compound,measurement,setting,value
CN1C(=O)[C@@]23C[C@]4([C@]56C[C@@]78SS[C@](CO)(C(=O)N7[C@H]5Nc5ccccc56)N(C)C8=O)c5ccccc5N[C@@H]4N2C(=O)[C@@]1(CO)SS3 [chaetocin],number of tumorspheres per well,[1],can eliminate TICs at low doses
same,change in H3K9me3 profile,[2]; 0.3 μM for 15 hours versus untreated,specific loss of H3K9me3 over epithelial genes
same,number of genes with simultaneous loss of H3K9me3 and increase in expression,"[2]; 0.3 μM for 15 hours, ChIP-seq with RNA-seq",60 genes
same,Fold Enrichment of cell-cell adhesion among genes which lose H3K9me3,[2]; [6],2.49
same,Fold Enrichment of neuron differentiation among genes which lose H3K9me3,[2]; [6],2.12
same,sensitivity (AUC of percent cell death) versus mesenchymal gene signature,[3],cells with mesenchymal transcriptional signature are sensitive to chaetocin
same,location of dead cells within spheroid,[4],preferentially and effectively kills the inner spheroid cells
same,E-cadherin level (mesenchymal to epithelial conversion),[5],stable epigenetic change in cell phenotype converting mesenchymal cancer cells into epithelial ones
